Data set [1] deals with P388 murine leukemia. The following applies: cited from earlier work.
In data set [2] the test system is L1210 murine leukemia. The note with it: cited from earlier work.
Data set [3] relates to HeLa cells. Description: Cytotoxic activity in vitro, HeLa cells. The data set is classed as cell-based. The protocol:
(§1) It appears that structural variations such as replacement of sulfur for oxygen or selenium as well as changes in the electronic nature of the substituents are critical factors in eliciting the inhibitory activity. Since in general satisfactory cytotoxic activity "in vitro" corresponds to good antitumor activity in vivo, the antitumor activity of compound Ib was assessed in mice bearing Ehrlich ascites tumor. A range of doses from 400 mg/kg to 90 mg/kg were tested, each given in a one dose basis, 24 h after tumor implantation. […] Compound Ib was also tested against P388 leukemia in mice.
(§2) HeLa-229 and KB cells were used for in vitro tissue culture cytotoxicity experiments. Cells were grown in monolayer culture in Difco TC Minimal Medium Eagle and supplemented with 10% foetal calf serum (Flow). Subculturing was performed every 6-7 days. Ehrlich ascites tumor was maintained in serial passages at two week intervals in Albino Swiss mice by intraperitoneal implant.
(§3) The method was essentially as described in Cancer Chemotherapy Rep. Part 3, 3, 2 (1972); NCl Monograph 45, p. 150. Drugs were always suspended in sterile 0.5% carboxymethyl cellulose. As a positive control 1 μM 6-mercaptopurine was always included.

For data set [4], the system named is Herpes simplex virus (HSV-1) infected KB cells. Description: Protein synthesis in HSV-1 infected and mock-infected KB cells. The data set is classed as cell-based. The note with it: for inhibition of translation (protein synthesis): infected vs mock-infected KB cells. The protocol:
In addition, herpes simplex virus (HSV-1) infected KB cells and KB mock-infected cells were assayed for protein synthesis in the presence of Ib at different concentrations.
Screening of antibiotic action on protein synthesis in virus infected cells.
Herpes simplex virus (HSV-1) infected KB cells and KB mock-infected cells were assayed for protein synthesis in the presence of nitrobenzothiazolo quinolium perchlorate at different concentrations. After infection or mock-infection nitrobenzothiazolo quinolium perchlorate was added at the concentration of 100, 50, 25, 5 and 1.5 μg/ml and incubated for 48 hours.
After the incubation time, protein synthesis was measured by addition of 0.1 μCi^35 S methionine ([…]; 5.4 mCl/ml) and incubated for 1 hour. After incubation the medium was removed, the reaction stopped and the radioactivity estimated in an Intertechnique liquid scintillation spectrometer.
The value 100% of control represents 72,484 cpm (mock-infected KB cells).

Data set [5] deals with Ehrlich ascites tumor. Description: Antitumor activity against Ehrlich ascites tumor in mice. The data set is classed as in vivo, female Albino Swiss mice. The note with it: for death of mice: one dose; for T/C: Day 12. The protocol:
as §1, §2
(§4) The mice used through these experiments were female Albino Swiss mice.
(§5) Each group consisted of five to six weight matched animals. To begin the antitumor experiment 1×10^6 viable cells (trypan blue exclusion test) were injected ip. Test compounds were suspended in 0.9% (w/v) NaCl solution containing 0.10% (v/v) Tween 80 at the higher concentration. Lower doses were obtained by serial dilutions with 0.9% NaCl and injected ip in a volume of 0.5 ml in a single dose 24 h after implantation of the tumor. Animal body weights were recorded daily during the next 30 days and the survival was followed for the next 60 days. The P388 leukemia assay was performed according to standard protocol, Cancer Chemotherapy Rep.; Part 3, 3, 2 (1972); NCl Monograph 45, p. 150.
(§6) ^a Average of three tests except when noted.
(§7) ^b and ^c Assay performed according to procols of NCl.
(§8) ^d Treatment given ip on Day 1.
^f Toxicity = LTS number of toxic deaths/number of treated mice.
^g LTS = long term survivors (60 days)/number of treated mice.

Data set [6] has as its system P388 leukemia. Put plainly: Antitumor activity against P388 leukemia in mice. The data set is classed as in vivo. The protocol: as §1, §4, §5, §6, §7
5Fluorouracil was used as control (200 mg/kg/ing).
as §8
^h Median survival time of treated mice/median survival of control
× 100. Values of T/C 120 denote activity.

Data set [7] relates to KB cells. Put plainly: Cytotoxic activity in vitro, KB cells. The data set is classed as cell-based. The following applies: for IC50: Homo sapiens, KB cells, average of at least three experiments, read-out: ED50 KB. The protocol: as §1, §2, §3
The subject of data set [8] is DNA synthesis. The following applies: probably by interacting with A:T base pairs; cited from earlier work.
The mark [9] stands for this setting: Ehrlich ascites, 90 mg/kg ip on Day 1, two test results.
Setting [10] is: Ehrlich ascites, 100 mg/kg ip on Day 1, two test results.
Setting [11] is: Ehrlich ascites, 150 mg/kg ip on Day 1.
[12] abbreviates: Ehrlich ascites, 200 mg/kg ip on Day 1.
Where [13] appears, read: Ehrlich ascites, 250 mg/kg ip on Day 1.
[14] abbreviates: Ehrlich ascites, 400 mg/kg ip on Day 1.

Like-named read-outs stand apart in the source and are kept apart here.

As for `COc1cc2cc3c4cc(OC)c(OC)cc4cc[n+]3c(C)c2cc1OC` [Coralyne], the antitumor activity entry in data set [1] and in data set [2] was “exhibits antitumor activity” each time.

Turning to `O=[N+]([O-])c1ccc2c(ccc3sc4ccccc4[n+]32)c1.[O-][Cl+3]([O-])([O-])[O-]` [Ib, 3-Nitrobenzothiazolo(3,2-a)quinolinium Perchlorate], the “cytotoxicity, ranking among compounds I” value in data set [3] (HeLa screen) and in data set [7] (KB screen) was “highest cytotoxicity” in each case. Also, the IC50 came out at 0.9 µg/mL in data set [3] (Homo sapiens, HeLa cells, average of at least three experiments, read-out: ED50 HeLa) and 0.61 µg/mL in data set [7]. Further, the virus yield result is “drastic reduction on virus yield” in data set [4] and “drastic reduction on virus yield” in data set [4] (5×10^-4 M, 48 hours). Further, the “inhibition of translation (protein synthesis)” value in data set [4] (5×10^-4 M, 48 hours) is reported as “inhibited preferentially translation on infected cells”; in data set [4], “inhibited preferentially translation on infected cells”. Also, the “death of mice” value in data set [5] (300 mg/kg) and in data set [5] (400 mg/kg) was “died within 24 h of injection” throughout. Besides, the T/C in data set [5] (setting [9]) is given as 57.3%; in data set [5] (setting [10]), 35.8%; in data set [5] (setting [11]), -0.4%; in data set [5] (setting [12]), -6.9%; in data set [5] (setting [13]), -2.5%. Also, the “LTS, long term survivors (60 days)/number of treated mice” value in data set [5] (setting [9]) was 5/10; in data set [5] (setting [10]), 12/12; in data set [5] (setting [11]) it was 15/18; in data set [5] (setting [12]), 18/18; in data set [5] (setting [13]) it was 15/18. For the same molecule, the Survival is 3/5 in data set [5] (setting [9]); 6/6 in data set [5] (setting [10]); 6/6 in data set [5] (setting [11]); 6/6 in data set [5] (setting [12]); 6/6 in data set [5] (setting [13]); 0/6 in data set [5] (setting [14]). Moreover, the Survival in data set [6] (200 mg/kg ip on Day 1) is on record as 6/6; in data set [6] (400 mg/kg ip on Day 1) it was 0/6. For the same molecule, the “Toxicity (toxic deaths/number of treated mice)” value in data set [5] (setting [14]) is 6/6. The T/C value in data set [5] (Ehrlich ascites, most effective dose 200 mg/kg, one dose 24 h after tumor implantation) was -6.2. In addition, the “T/C (median survival time of treated mice/median survival of control × 100)” value in data set [6] (200 mg/kg ip on Day 1, values of T/C 120 denote activity) is on record as 218. Also, the Toxicity in data set [6] (400 mg/kg ip on Day 1) is 6/6.

Regarding `O=[N+]([O-])c1ccc2c(ccc3[se]c4ccccc4[n+]32)c1.[O-][Cl+3]([O-])([O-])[O-]` [Il, 3-Nitrobenzoselenazolo(3,2-a)quinolinium Perchlorate], the IC50 in data set [7] turned out to be 100 µg/mL.

Take `COc1cc2c(ccc3c4cc(OC)c(OC)cc4c[n+](C)c23)cc1O` [fagaronine]: the antitumor activity entry in data set [1] and in data set [2] was “potent antitumor activity” in each case. Also, the “inhibition of DNA synthesis” value in data set [8] is reported as “inhibit DNA synthesis”.

For `COc1cc2c[n+](C)c3c4cc5c(cc4ccc3c2cc1OC)OCO5` [nitidine], the antitumor activity entry in data set [1] and in data set [2] was “potent antitumor activity” in each case. Further, the “inhibition of DNA synthesis” value in data set [8] is given as “inhibit DNA synthesis”.

Values taken from patent US4590275A, “Benzoheterazolo[3,2-a]quinolinium salts” (Commonwealth of Puerto Rico, priority 1983, dated 1986).
